From PMC9863764, “Roles of Human Liver Cytochrome P450 Enzymes in Tenatoprazole Metabolism” (Pharmaceutics, 2022)
“And” between values parts separate entries of the source, which are not always exact repeats. Equal values may be shown once.

Columns and labels:
CYP2D6 = molecular target: T1, CYP2D6 (Homo sapiens, UniProt P10635); assay: Tenatoprazole oxidation by recombinant CYP2D6; type: in vitro ADME; settings: substrate tenatoprazole 0.10 mM, 0.20 μM CYP2D6
T1 construct: made in house; host or cells: Escherichia coli (membrane fractions)
Experimental: (§1) Pooled liver microsomes from human samples were obtained from ThermoFisher Scientific (Waltham, MA, USA). Recombinant human P450s were heterologously expressed in Escherichia coli with a pCW vector containing human P450 cDNA (CYP 3A4, 2C9, 2C19, 1A2, 1B1, 2E1, 2D6, and 2A6) and rat NADPH-P450 reductase (CPR). Membrane fractions expressing both P450 and CPR of E. coli were prepared as described previously and were used for the catalytic activity assays.
(§2) The reaction mixture included 0.20 μM P450, 0.40 μM CPR, and tenatoprazole (0.10 mM) in 0.25 mL of 0.10 M potassium phosphate buffer (pH 7.4). The reaction was started by adding NGS and the incubation was continued for the indicated time at 37 °C. Incubation was then stopped by adding ice-chilled ethyl acetate (0.50 mL) and omeprazole (IS) was added to a final concentration of 20 μM. The mixtures were vortexed for 2 min, centrifuged at 1000× g for 20 min, and then the organic layer was taken for drying under nitrogen gas stream. The residues were dissolved in 180 μL of HPLC mobile phase and 30 μL was injected onto a Gemini C18 column (4.6 × 150 mm, 5 μm; Phenomenex, Torrance, CA, USA). The products formed were analyzed by HPLC at A302. […]

CYP1B1 = molecular target: T2, CYP1B1 (Homo sapiens, UniProt Q16678); assay: Tenatoprazole oxidation by recombinant CYP1B1; type: in vitro ADME; settings: substrate tenatoprazole 0.10 mM, 0.20 μM CYP1B1; no apparent formation
T2 construct: made in house; host or cells: Escherichia coli (membrane fractions)
T2 sequence (Q16678 1-543): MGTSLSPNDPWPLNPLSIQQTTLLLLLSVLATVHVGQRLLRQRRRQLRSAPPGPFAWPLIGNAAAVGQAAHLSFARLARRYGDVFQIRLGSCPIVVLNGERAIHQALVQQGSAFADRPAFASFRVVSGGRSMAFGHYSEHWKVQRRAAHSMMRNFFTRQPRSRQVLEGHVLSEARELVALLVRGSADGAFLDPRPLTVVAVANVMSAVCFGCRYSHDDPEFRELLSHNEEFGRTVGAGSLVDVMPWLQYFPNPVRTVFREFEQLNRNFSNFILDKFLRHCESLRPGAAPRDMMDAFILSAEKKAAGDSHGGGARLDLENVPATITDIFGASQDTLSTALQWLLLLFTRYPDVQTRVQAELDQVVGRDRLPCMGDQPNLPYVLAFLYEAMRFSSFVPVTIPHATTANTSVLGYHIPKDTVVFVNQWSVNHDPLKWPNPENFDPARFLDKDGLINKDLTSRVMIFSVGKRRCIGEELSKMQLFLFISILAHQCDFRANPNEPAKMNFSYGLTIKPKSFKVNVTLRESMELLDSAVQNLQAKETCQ
Experimental: as §1
(§3) The reaction mixture included 0.20 μM P450, 0.40 μM CPR, and tenatoprazole (0.10 mM) in 0.25 mL of 0.10 M potassium phosphate buffer (pH 7.4). The reaction was started by adding NGS and the incubation was continued for the indicated time at 37 °C. Incubation was then stopped by adding ice-chilled ethyl acetate (0.50 mL) and omeprazole (IS) was added to a final concentration of 20 μM. The mixtures were vortexed for 2 min, centrifuged at 1000× g for 20 min, and then the organic layer was taken for drying under nitrogen gas stream. The residues were dissolved in 180 μL of HPLC mobile phase and 30 μL was injected onto a Gemini C18 column (4.6 × 150 mm, 5 μm; Phenomenex, Torrance, CA, USA). The products formed were analyzed by HPLC at A302. The HPLC profile of the authentic chemicals (i.e., tenatoprazole, tenatoprazole sulfide, and their metabolites) were used to identify the major metabolites of tenatoprazole and tenatoprazole sulfide produced by the recombinant P450s.
(§4) Figure S6. HPLC analyses of the products derived from the oxidation of tenatoprazole catalyzed by recombinant human P450s. The reaction mixture included 0.20 μM P450, 0.40 μM CPR, and 0.10 mM tenatoprazole in 0.25 mL of potassium phosphate buffer (0.10 M, pH 7.4). The reaction was started by adding an NGS at 37 °C for 60 min. (A) CYP1A2; (B) CYP1B1; (C) CYP2A6; (D) CYP2C9; (E) CYP2D6; (F) CYP2E1. The arrows with solid and broken lines indicate the retention times of 5’-OH tenatoprazole (6.6 min) and 5’-OH tenatoprazole sulfide (8.4 min), respectively.
(§5) (1 picture or pasted object on this page, not shown here)

CYP1A2 = molecular target: T3, CYP1A2 (Homo sapiens, UniProt P05177); assay: Tenatoprazole oxidation by recombinant CYP1A2; type: in vitro ADME; settings: substrate tenatoprazole 0.10 mM, 0.20 μM CYP1A2; no apparent formation
T3 construct: made in house; host or cells: Escherichia coli (membrane fractions)
T3 sequence (P05177 1-516): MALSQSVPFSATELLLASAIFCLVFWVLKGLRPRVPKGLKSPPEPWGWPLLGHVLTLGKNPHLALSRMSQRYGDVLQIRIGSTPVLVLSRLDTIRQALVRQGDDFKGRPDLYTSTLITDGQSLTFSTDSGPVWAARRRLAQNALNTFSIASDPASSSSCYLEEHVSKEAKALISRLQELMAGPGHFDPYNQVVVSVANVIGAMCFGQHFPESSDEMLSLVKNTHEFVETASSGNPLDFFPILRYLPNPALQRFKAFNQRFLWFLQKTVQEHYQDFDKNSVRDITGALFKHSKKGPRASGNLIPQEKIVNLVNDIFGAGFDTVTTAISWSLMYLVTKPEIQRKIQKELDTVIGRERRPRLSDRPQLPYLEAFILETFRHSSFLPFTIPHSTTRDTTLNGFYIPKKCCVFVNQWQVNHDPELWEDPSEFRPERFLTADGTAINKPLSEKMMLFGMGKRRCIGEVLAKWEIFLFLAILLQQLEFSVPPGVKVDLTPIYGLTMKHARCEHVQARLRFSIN
Experimental: as §1, §3, §4, §5

CYP2C9 = molecular target: T4, CYP2C9 (Homo sapiens, UniProt P11712); assay: Tenatoprazole oxidation by recombinant CYP2C9; type: in vitro ADME; settings: substrate tenatoprazole 0.10 mM, 0.20 μM CYP2C9
T4 construct: made in house; host or cells: Escherichia coli (membrane fractions)
Experimental: as §1, §2

CYP2E1 = molecular target: T5, CYP2E1 (Homo sapiens, UniProt P05181); assay: Tenatoprazole oxidation by recombinant CYP2E1; type: in vitro ADME; settings: substrate tenatoprazole 0.10 mM, 0.20 μM CYP2E1; no apparent formation
T5 construct: made in house; host or cells: Escherichia coli (membrane fractions)
Experimental: as §1, §3, §4, §5

human CYP2C19 [1] = molecular target: T6, human CYP2C19 (Homo sapiens, UniProt P33261); assay: Steady-state kinetics of tenatoprazole oxidation by recombinant CYP2C19; type: in vitro ADME; settings: substrate tenatoprazole (1–500 μM), recombinant CYP2C19 0.20 μM, 37 °C, 5 min; label = product formed
T6 construct: made in house; host or cells: Escherichia coli (membrane fractions)
Experimental: Pooled liver microsomes from human samples were obtained from ThermoFisher Scientific (Waltham, MA, USA). […] Membrane fractions expressing both P450 and CPR of E. coli were prepared as described previously and were used for the catalytic activity assays. […] The reaction was started by adding NGS and the incubation was continued for the indicated time at 37 °C. Incubation was then stopped by adding ice-chilled ethyl acetate (0.50 mL) and omeprazole (IS) was added to a final concentration of 20 μM. […] Phenomenex, Torrance, CA, USA). The products formed were analyzed by HPLC at […]. […] The kinetic parameters (kcat and Km) were determined by using a Michaelis-Menten nonlinear regression analysis with GraphPad Prism (GraphPad Software, San Diego, CA, USA).

CYP2A6 = molecular target: T7, CYP2A6 (Homo sapiens, UniProt P11509); assay: Tenatoprazole oxidation by recombinant CYP2A6; type: in vitro ADME; settings: substrate tenatoprazole 0.10 mM, 0.20 μM CYP2A6; no apparent formation
T7 construct: made in house; host or cells: Escherichia coli (membrane fractions)
T7 sequence (P11509 1-494): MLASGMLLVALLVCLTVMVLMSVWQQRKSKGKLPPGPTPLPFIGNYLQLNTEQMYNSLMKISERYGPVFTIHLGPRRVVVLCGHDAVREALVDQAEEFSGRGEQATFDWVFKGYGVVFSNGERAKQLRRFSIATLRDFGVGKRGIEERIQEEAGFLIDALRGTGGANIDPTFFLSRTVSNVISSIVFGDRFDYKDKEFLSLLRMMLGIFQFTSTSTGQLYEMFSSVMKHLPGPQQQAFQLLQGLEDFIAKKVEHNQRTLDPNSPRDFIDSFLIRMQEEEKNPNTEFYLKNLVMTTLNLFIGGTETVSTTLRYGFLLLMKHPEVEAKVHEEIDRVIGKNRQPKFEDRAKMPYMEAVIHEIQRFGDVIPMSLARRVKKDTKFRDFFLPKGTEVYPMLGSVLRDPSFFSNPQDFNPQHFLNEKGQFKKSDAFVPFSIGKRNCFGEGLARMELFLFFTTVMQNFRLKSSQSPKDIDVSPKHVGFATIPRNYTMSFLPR
Experimental: as §1, §3, §4, §5

human CYP2C19 [2] = molecular target: T6, human CYP2C19; design: method as in earlier work; settings: in vitro; cited from earlier work
human CYP3A4 = molecular target: T8, human CYP3A4 (Homo sapiens, UniProt P08684); assay: Sulfoxidation of tenatoprazole sulfide by recombinant CYP3A4 (chiral chromatography); type: in vitro ADME; settings: substrate tenatoprazole sulfide, recombinant CYP3A4, chiral chromatography; label = product formed
T8 construct: made in house; host or cells: Escherichia coli (membrane fractions)
Experimental: The sulfoxidation reaction of tenatoprazole sulfide by CYP3A4 was measured by chiral chromatography. […] The reaction was initiated by adding NGS at 37 °C. […] After the residues were solubilized in 180 μL mobile phase, 30 μL samples were injected onto a Chiralpak AD column (4.6 × 150 mm, 10 μm; Daicel Corporation, Osaka, Japan) with a hexane-ethanol mixture (30:70, v/v) as the mobile phase. The products formed were analyzed by HPLC at […]. […] The kinetic parameters (kcat and Km) were determined by using a Michaelis-Menten nonlinear regression analysis with GraphPad Prism (GraphPad Software, San Diego, CA, USA).

T6 sequence (P33261 whole entry): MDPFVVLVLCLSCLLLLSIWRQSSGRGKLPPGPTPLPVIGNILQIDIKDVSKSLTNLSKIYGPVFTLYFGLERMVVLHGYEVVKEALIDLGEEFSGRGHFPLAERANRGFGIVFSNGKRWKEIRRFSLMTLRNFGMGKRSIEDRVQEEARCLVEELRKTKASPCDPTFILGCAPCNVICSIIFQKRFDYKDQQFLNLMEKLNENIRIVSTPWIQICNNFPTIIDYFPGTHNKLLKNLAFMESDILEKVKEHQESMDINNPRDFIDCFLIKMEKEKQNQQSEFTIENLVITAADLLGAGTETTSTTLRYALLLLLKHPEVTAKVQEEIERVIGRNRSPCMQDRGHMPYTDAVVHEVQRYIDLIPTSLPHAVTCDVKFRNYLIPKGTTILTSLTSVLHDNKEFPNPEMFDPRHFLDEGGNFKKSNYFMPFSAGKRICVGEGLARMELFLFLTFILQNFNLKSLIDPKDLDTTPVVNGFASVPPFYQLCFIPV
T8 sequence (P08684 whole entry): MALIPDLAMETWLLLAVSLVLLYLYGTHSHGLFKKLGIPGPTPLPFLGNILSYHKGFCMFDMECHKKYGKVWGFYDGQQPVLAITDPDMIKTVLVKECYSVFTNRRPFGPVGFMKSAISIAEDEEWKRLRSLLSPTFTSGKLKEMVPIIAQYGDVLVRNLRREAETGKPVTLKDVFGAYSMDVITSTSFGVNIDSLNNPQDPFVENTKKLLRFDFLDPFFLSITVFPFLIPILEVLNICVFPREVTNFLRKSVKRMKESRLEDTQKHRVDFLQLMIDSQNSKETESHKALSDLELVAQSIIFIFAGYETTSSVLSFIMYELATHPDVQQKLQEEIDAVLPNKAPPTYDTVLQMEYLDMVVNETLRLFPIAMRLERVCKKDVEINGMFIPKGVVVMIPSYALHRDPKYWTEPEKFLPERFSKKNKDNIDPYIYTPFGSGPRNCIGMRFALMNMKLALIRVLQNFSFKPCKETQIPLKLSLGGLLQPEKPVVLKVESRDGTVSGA
T5 sequence (P05181 whole entry): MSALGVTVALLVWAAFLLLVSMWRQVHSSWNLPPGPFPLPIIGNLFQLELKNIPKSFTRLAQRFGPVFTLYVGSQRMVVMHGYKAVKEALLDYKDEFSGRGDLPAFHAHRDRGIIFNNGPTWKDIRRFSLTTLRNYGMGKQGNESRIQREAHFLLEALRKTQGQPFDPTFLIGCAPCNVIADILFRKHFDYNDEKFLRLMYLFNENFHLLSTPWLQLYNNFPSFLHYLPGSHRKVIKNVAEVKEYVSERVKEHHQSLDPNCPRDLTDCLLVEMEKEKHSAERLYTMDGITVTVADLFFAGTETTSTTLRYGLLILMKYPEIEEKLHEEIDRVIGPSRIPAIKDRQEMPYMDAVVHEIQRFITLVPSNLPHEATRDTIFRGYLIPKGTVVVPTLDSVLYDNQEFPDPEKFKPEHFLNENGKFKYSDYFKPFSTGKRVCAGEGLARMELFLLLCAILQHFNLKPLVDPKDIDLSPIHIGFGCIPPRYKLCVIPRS
T4 sequence (P11712 whole entry): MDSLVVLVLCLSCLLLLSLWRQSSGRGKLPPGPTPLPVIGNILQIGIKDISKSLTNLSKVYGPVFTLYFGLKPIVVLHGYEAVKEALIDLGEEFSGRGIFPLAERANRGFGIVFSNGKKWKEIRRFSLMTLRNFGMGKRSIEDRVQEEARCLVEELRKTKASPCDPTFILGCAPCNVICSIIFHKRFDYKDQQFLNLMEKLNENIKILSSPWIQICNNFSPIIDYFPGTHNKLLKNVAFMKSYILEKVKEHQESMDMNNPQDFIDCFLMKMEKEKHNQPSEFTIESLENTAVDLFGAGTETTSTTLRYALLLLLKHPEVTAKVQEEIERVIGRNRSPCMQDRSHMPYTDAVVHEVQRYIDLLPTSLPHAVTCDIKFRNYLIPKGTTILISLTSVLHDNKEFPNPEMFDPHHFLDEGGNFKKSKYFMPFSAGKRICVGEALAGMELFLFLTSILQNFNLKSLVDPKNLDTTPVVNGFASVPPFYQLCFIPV
T1 sequence (P10635 whole entry): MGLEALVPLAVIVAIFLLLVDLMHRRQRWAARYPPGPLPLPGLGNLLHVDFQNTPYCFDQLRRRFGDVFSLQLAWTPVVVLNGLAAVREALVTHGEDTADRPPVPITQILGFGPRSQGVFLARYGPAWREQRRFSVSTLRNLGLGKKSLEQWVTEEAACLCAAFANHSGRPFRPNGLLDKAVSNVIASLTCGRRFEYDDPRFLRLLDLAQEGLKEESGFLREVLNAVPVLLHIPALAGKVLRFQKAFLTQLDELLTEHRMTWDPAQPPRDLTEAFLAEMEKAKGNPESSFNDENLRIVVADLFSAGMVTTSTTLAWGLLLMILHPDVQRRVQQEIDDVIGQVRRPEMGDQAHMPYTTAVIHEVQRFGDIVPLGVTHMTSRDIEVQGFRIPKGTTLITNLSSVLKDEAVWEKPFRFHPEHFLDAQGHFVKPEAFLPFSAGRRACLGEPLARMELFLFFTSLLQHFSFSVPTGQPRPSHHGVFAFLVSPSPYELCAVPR

With `COc1ccc2[nH]c(SCc3ncc(CO)c(OC)c3C)nc2n1` [5′-OH tenatoprazole sulfide] the “formation rate of metabolite” value (CYP2D6) was 0.3 min⁻¹, the “formation rate of metabolite” value (CYP1B1) was < 0.05 nmol product/min/nmol P450 and the “formation rate of metabolite” value (CYP1A2) was < 0.05 nmol product/min/nmol P450. For the same compound, the “formation rate of metabolite” value (CYP2C9) was 0.1 min⁻¹, the “formation rate of metabolite” value (CYP2E1) was < 0.05 nmol product/min/nmol P450 and the “kcat of product formation” value (human CYP2C19 [1]) was 0.0333 s⁻¹ and 0.0333 ± 0.0017 s⁻¹. For the same compound, the “formation rate of metabolite” value (CYP2A6) was < 0.05 nmol product/min/nmol P450.

In the case of `COc1ccc2[nH]c([S@@+]([O-])Cc3ncc(C)c(OC)c3C)nc2n1` [S-tenatoprazole], the “rate of metabolism of S-isomer relative to R-isomer” value (human CYP2C19 [2]) is listed as “around seven times more slowly” and the “kcat of product formation” value (human CYP3A4) is listed as 0.045 s⁻¹ and 0.045 ± 0.0033 s⁻¹.
